Test results: US20100087476A1, “PHARMACEUTICAL COMPOUNDS” (Biovail Laboratories International (Barbados) S.R.L., priority 2008, published 2010)

Legend:
Assay type in all cases: in vivo, BALB/c mice
OVA-sensitised mice [1] = assay: Lung histopathology scores (pulmonary inflammation), chicken ovalbumin parenteral sensitization model of asthma; conditions: 1 to 20 mg/kg twice daily oral gavage; probable dose-effect
Procedure: Groups of 8 BALB/c mice aged between 5 and 8 weeks of age were sensitised by i.p. (intraperitoneal) injection with ovalalbumin (OVA) in alum on days 0 and 14 (except Group A). All animals were challenged by aerosol exposure to 5% OVA for 20 minutes daily from days 18 to 23. Treatments were given by oral gavage twice daily from day 14 to day 24. At termination (day 24), all animals were subjected to unrestrained whole body plethysmography (whole-body plethysmograph Buxco Electronics, Troy, US) during exposure to increasing doses of methacholine leading to bronchoconstriction and hyper-responsiveness. These changes can be measured using the Buxco software to determine the PenH values for each animal. BAL fluids were collected and cytospins prepared and counted differentially for the presence of infiltrating cells. The supernatant from the BAL was retained and stored at ^−80° C. for possible cytokine analysis. Further, lungs were removed and placed in 10% buffered formalin for possible histopathology. […] The HE-stained sections were assessed for lung inflammation. Each lung was scored as described below. Samples were scored in blinded fashion, without knowledge of the experimental protocol or identity of groups. A semi-quantitative grading system was used to describe the degree of inflammatory change in the lungs. Descriptive comments (nature of cellular infiltration) were also recorded. […]

OVA-sensitised mice [2] = assay: Differential cell counts in bronchial lavage fluid (BAL), chicken ovalbumin parenteral sensitization model of asthma
From the text: (§1) An animal model of asthma was used in this study that included parenteral sensitisation of mice with chicken ovalbumin (OVA) together with a suitable adjuvant (Alum). Ovalbumin is widely used as an antigen as a result of its availability and ability to induce a good Th2-type immune response due to lack of any previous exposure to this antigen. Repeated aerosol exposure to ovalbumin post-sensitisation triggers airway changes leading to hyper-responsiveness, similar to that seen in asthma. These changes can be measured following challenge with a bronchoconstricting agent such as methacholine and analysed using whole body plethysmography. Pulmonary plethysmography is used to measure the functional residual capacity (FRC) of the lungs—the volume in the lungs when the muscles of respiration are relaxed—and total lung capacity. The degree of bronchochonstriction (BHR) can be expressed as enhanced pause (Pen H), a calculated value which correlates with measurement of airway resistance, impedance and intrapleural pressure in the same mouse.
In addition, allergy can by analysed by examination of changes in the lung and lung fluid. This can be achieved by histopathological analysis of lung tissue and analysis of the cellular infiltrate in bronchial lavage fluid (BAL). Further, additional markers of allergy such as the presence of cytokines associated with allergy, IL-4 and IL-13 can be analysed in the BAL fluid.
(§2) Groups of 8 BALB/c mice aged between 5 and 8 weeks of age were sensitised by i.p. (intraperitoneal) injection with ovalalbumin (OVA) in alum on days 0 and 14 (except Group A). All animals were challenged by aerosol exposure to 5% OVA for 20 minutes daily from days 18 to 23. Treatments were given by oral gavage twice daily from day 14 to day 24. At termination (day 24), all animals were subjected to unrestrained whole body plethysmography (whole-body plethysmograph Buxco Electronics, Troy, US) during exposure to increasing doses of methacholine leading to bronchoconstriction and hyper-responsiveness. These changes can be measured using the Buxco software to determine the PenH values for each animal. BAL fluids were collected and cytospins prepared and counted differentially for the presence of infiltrating cells. The supernatant from the BAL was retained and stored at ^−80° C. for possible cytokine analysis. […]
Mice were terminated by i.p. injection of euthatal, the trachea exposed and cells obtained from the lungs by performing bronchoalveolar lavage, 3×0.4 ml with PBS. The lavage was pooled, cells counted using a nucleocounter, pelletted and resuspended at 5×10^5 cells per ml. […]
A minimum of 5 areas were counted on each slide. Each cell type was counted and percentage cell numbers determined From this the number of cells/BAL was determined.

OVA-sensitised mice [3] = assay: Unrestrained whole body plethysmography (PenH) during methacholine exposure, chicken ovalbumin parenteral sensitization model of asthma
From the text: as §1
Pen H is calculated from the relationship Pen H=(Te/Tr−1)×(Pef/Pif) where;
as §2

[4] = across 1, 10 and 20 mg/kg twice daily oral gavage, day 14-24
[5] = highest dose, 20 mg/kg twice daily oral gavage (Group E)
[6] = two lower doses (1 and 10 mg/kg twice daily oral gavage, Groups C and D)

COc1cc2c(cc1OC)[C@H]1C[C@H](O)[C@@H](CC(C)C)CN1CC2 (single isomer, unassigned) [Isomer B]
lung pathology (mean group histopathological score) (OVA-sensitised mice [1]): significant amelioration of pathology | levels of eosinophil infiltration into the lung (OVA-sensitised mice [2]; [4]): dose dependent effect | effect on lung cell infiltration (OVA-sensitised mice [2]; [5]): small | eosinophil numbers in the BAL (OVA-sensitised mice [2]; [5]): associated reduction in eosinophil numbers in the BAL | levels of eosinophil infiltration into the lung (OVA-sensitised mice [2]; [6]): no clear difference between treated and untreated animals | PenH response to methacholine (OVA-sensitised mice [3]; [4]): dose dependent effect | airway hyper-responsiveness (PenH) (OVA-sensitised mice [3]; [5]): reduced airway hyper-responsiveness to levels just above those of the budesonide controls | PenH response to methacholine (OVA-sensitised mice [3]; [6]): no clear difference between treated and untreated animals
